According to PubChem BioAssay (NCI):
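Where inhibition never reached the appropriate level, the endpoint shown equals the highest concentration tested. Otherwise, values were interpolated linearly from a five-concentration, 48-hour dose response in 96-well plates. TGI: total growth inhibition.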

Assays:
Experiment in all cases: NCI-60 cell line screen, 48 h
786-0 renal = test system: 786-0 renal
A498 renal = test system: A498 renal
A549 NSCLC = test system: A549 NSCLC
ACHN renal = test system: ACHN renal
BT-549 breast = test system: BT-549 breast
CAKI-1 renal = test system: CAKI-1 renal
CCRF-CEM leukemia = test system: CCRF-CEM leukemia
COLO 205 colon = test system: COLO 205 colon
DU-145 prostate = test system: DU-145 prostate
EKVX NSCLC = test system: EKVX NSCLC
HCC-2998 colon = test system: HCC-2998 colon
HCT-116 colon = test system: HCT-116 colon
HCT-15 colon = test system: HCT-15 colon
HL-60(TB) leukemia = test system: HL-60(TB) leukemia
HOP-62 NSCLC = test system: HOP-62 NSCLC
HOP-92 NSCLC = test system: HOP-92 NSCLC
HS 578T breast = test system: HS 578T breast
HT29 colon = test system: HT29 colon
IGROV1 ovarian = test system: IGROV1 ovarian
K-562 leukemia = test system: K-562 leukemia
KM12 colon = test system: KM12 colon
LOX IMVI melanoma = test system: LOX IMVI melanoma
M14 melanoma = test system: M14 melanoma
MALME-3M melanoma = test system: MALME-3M melanoma
MCF7 breast = test system: MCF7 breast
MDA-MB-231 breast = test system: MDA-MB-231 breast
MDA-MB-435 = test system: MDA-MB-435
MDA-N = test system: MDA-N
MOLT-4 leukemia = test system: MOLT-4 leukemia
NCI-H226 lung = test system: NCI-H226 lung
NCI-H23 lung = test system: NCI-H23 lung
NCI-H460 lung = test system: NCI-H460 lung
NCI-H522 lung = test system: NCI-H522 lung
NCI/ADR-RES ovarian = test system: NCI/ADR-RES ovarian
OVCAR-3 ovarian = test system: OVCAR-3 ovarian
OVCAR-4 ovarian = test system: OVCAR-4 ovarian
OVCAR-5 ovarian = test system: OVCAR-5 ovarian
OVCAR-8 ovarian = test system: OVCAR-8 ovarian
PC-3 prostate = test system: PC-3 prostate
RPMI-8226 leukemia = test system: RPMI-8226 leukemia
RXF 393 renal = test system: RXF 393 renal
SF-268 CNS = test system: SF-268 CNS
SF-295 CNS = test system: SF-295 CNS
SF-539 CNS = test system: SF-539 CNS
SK-MEL-2 melanoma = test system: SK-MEL-2 melanoma
SK-MEL-28 melanoma = test system: SK-MEL-28 melanoma
SK-MEL-5 melanoma = test system: SK-MEL-5 melanoma
SK-OV-3 ovarian = test system: SK-OV-3 ovarian
SN12C renal = test system: SN12C renal
SNB-19 CNS = test system: SNB-19 CNS
SNB-75 CNS = test system: SNB-75 CNS
SW-620 colon = test system: SW-620 colon
T-47D breast = test system: T-47D breast
TK-10 renal = test system: TK-10 renal
U251 CNS = test system: U251 CNS
UACC-257 melanoma = test system: UACC-257 melanoma
UACC-62 melanoma = test system: UACC-62 melanoma
UO-31 renal = test system: UO-31 renal
SR leukemia = test system: SR leukemia

CC(C)NC(=O)OCCN=C1c2ccccc2C(Br)C(Br)c2ccccc21 (centres undefined)
TGI (786-0 renal): 8.34 µM
TGI (A498 renal): 6.58 µM
TGI (A549 NSCLC): 62.4 µM
TGI (ACHN renal): 25.4 µM
TGI (BT-549 breast): 29.3 µM
TGI (CAKI-1 renal): 19.7 µM
TGI (CCRF-CEM leukemia): 1.69 µM
TGI (COLO 205 colon): 18.9 µM
TGI (DU-145 prostate): 30 µM
TGI (EKVX NSCLC): 59.2 µM
TGI (HCC-2998 colon): 49.8 µM
TGI (HCT-116 colon): > 58.1 µM
TGI (HCT-15 colon): > 69.8 µM
TGI (HL-60(TB) leukemia): 2.6 µM
TGI (HOP-62 NSCLC): 30 µM
TGI (HOP-92 NSCLC): 17 µM
TGI (HS 578T breast): 31.4 µM
TGI (HT29 colon): 25 µM
TGI (IGROV1 ovarian): 7.14 µM
TGI (K-562 leukemia): 3.62 µM
TGI (KM12 colon): 45.8 µM
TGI (LOX IMVI melanoma): 10.1 µM
TGI (M14 melanoma): 16.2 µM
TGI (MALME-3M melanoma): 17.2 µM
TGI (MCF7 breast): 28.2 µM
TGI (MDA-MB-231 breast): 30.5 µM
TGI (MDA-MB-435): 27.2 µM
TGI (MDA-N): 28.9 µM
TGI (MOLT-4 leukemia): 14.9 µM
TGI (NCI-H226 lung): 33.2 µM
TGI (NCI-H23 lung): 53.8 µM
TGI (NCI-H460 lung): 32.4 µM
TGI (NCI-H522 lung): 3.52 µM
TGI (NCI/ADR-RES ovarian): 41.7 µM
TGI (OVCAR-3 ovarian): 35.6 µM
TGI (OVCAR-4 ovarian): 33.6 µM
TGI (OVCAR-5 ovarian): 27.3 µM
TGI (OVCAR-8 ovarian): 24.8 µM
TGI (PC-3 prostate): > 48.8 µM
TGI (RPMI-8226 leukemia): 23.1 µM
TGI (RXF 393 renal): 6.66 µM
TGI (SF-268 CNS): 38.7 µM
TGI (SF-295 CNS): 42 µM
TGI (SF-539 CNS): 9.64 µM
TGI (SK-MEL-2 melanoma): > 54.1 µM
TGI (SK-MEL-28 melanoma): 35.1 µM
TGI (SK-MEL-5 melanoma): 21.1 µM
TGI (SK-OV-3 ovarian): > 62.9 µM
TGI (SN12C renal): 43.4 µM
TGI (SNB-19 CNS): 43.3 µM
TGI (SNB-75 CNS): 39.8 µM
TGI (SW-620 colon): > 27.3 µM
TGI (T-47D breast): 18.4 µM
TGI (TK-10 renal): 21.6 µM
TGI (U251 CNS): 25.5 µM
TGI (UACC-257 melanoma): 35.8 µM
TGI (UACC-62 melanoma): 31.1 µM
TGI (UO-31 renal): 8.97 µM

COc1ccc(C=C2C(C)=NN(c3cccc(Cl)c3)C23C(Cl)C(=O)N3c2nc3ccccc3s2)cc1 (centres undefined)
TGI (786-0 renal): 29.4 µM
TGI (A498 renal): 34.8 µM
TGI (ACHN renal): 51.6 µM
TGI (CAKI-1 renal): 61 µM
TGI (CCRF-CEM leukemia): 30.5 µM
TGI (DU-145 prostate): 33 µM
TGI (EKVX NSCLC): > 100 µM
TGI (HCC-2998 colon): 7.42 µM
TGI (HCT-116 colon): 28.8 µM
TGI (HCT-15 colon): 37.1 µM
TGI (HL-60(TB) leukemia): 6.62 µM
TGI (HOP-62 NSCLC): 44.4 µM
TGI (HOP-92 NSCLC): 24.6 µM
TGI (HS 578T breast): 74.1 µM
TGI (HT29 colon): 24.4 µM
TGI (IGROV1 ovarian): 40.1 µM
TGI (K-562 leukemia): > 100 µM
TGI (KM12 colon): 34.8 µM
TGI (LOX IMVI melanoma): 38.5 µM
TGI (M14 melanoma): 44.5 µM
TGI (MCF7 breast): 61.4 µM
TGI (MDA-MB-231 breast): 51.5 µM
TGI (MDA-MB-435): 66.8 µM
TGI (MDA-N): 44.6 µM
TGI (MOLT-4 leukemia): 68 µM
TGI (NCI-H226 lung): 79.1 µM
TGI (NCI-H23 lung): 36 µM
TGI (NCI-H460 lung): 66.6 µM
TGI (NCI-H522 lung): 22 µM
TGI (NCI/ADR-RES ovarian): 85.7 µM
TGI (OVCAR-3 ovarian): 42.9 µM
TGI (OVCAR-4 ovarian): 93.5 µM
TGI (OVCAR-5 ovarian): 37.6 µM
TGI (OVCAR-8 ovarian): 42 µM
TGI (PC-3 prostate): 39.3 µM
TGI (RPMI-8226 leukemia): > 100 µM
TGI (RXF 393 renal): 28 µM
TGI (SF-268 CNS): 78.3 µM
TGI (SF-295 CNS): 50.9 µM
TGI (SF-539 CNS): > 100 µM
TGI (SK-MEL-2 melanoma): 38.9 µM
TGI (SK-MEL-28 melanoma): 23.9 µM
TGI (SK-MEL-5 melanoma): 32.9 µM
TGI (SK-OV-3 ovarian): 89.7 µM
TGI (SR leukemia): 85.7 µM
TGI (SW-620 colon): 20.7 µM
TGI (T-47D breast): > 100 µM
TGI (TK-10 renal): > 100 µM
TGI (U251 CNS): 40.9 µM
TGI (UACC-257 melanoma): 72.3 µM
TGI (UO-31 renal): 33.4 µM
